For 28 compounds, IC50 results are on record in US8592455B2 (priority 2008, dated 2013).

Read-outs that look alike come from different tables or passages of the source.

Test [1] deals with T1, Pim1 kinase (Homo sapiens (Human), UniProt P11309). Description: biochemical.
Test [2] has as its target Pim3 kinase (Homo sapiens (Human), UniProt Q86V86). Particulars: read-out: Pim3 IC50.
The target of test [3] is T1, Pim1 kinase. Particulars: read-out: Pim1 IC50.

T1 sequence (P11309 whole entry): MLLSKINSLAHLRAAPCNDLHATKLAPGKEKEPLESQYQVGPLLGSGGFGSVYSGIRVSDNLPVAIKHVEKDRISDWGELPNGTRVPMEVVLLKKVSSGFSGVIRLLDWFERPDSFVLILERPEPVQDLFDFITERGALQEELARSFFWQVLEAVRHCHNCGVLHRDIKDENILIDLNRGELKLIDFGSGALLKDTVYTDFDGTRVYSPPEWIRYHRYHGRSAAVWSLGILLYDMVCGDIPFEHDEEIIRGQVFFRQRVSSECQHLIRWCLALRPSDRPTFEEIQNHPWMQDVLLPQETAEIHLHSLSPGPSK

In general, IC50 refers to the concentration that inhibits the measured activity by half. Turning to `Nc1ccc(-c2c(F)cccc2F)nc1C(=O)Nc1cnccc1[C@@H]1CC[C@H](O)[C@H](N)C1` (stereo in doubt) [Example 102, 3-amino-N-(4-(3-amino-4-hydroxycyclohexyl)pyridin-3-yl)-6-(2,6-difluorophenyl)picolinamide], the IC50 in test [1] was determined as 1 nM.
With `C[C@@H]1C[C@H](N)C[C@H](c2ccncc2NC(=O)c2ccc(F)c(-c3cc(F)ccc3F)n2)C1` [Example 61, N-(4-((1R,3S,5S)-3-amino-5-methylcyclohexyl)pyridin-3-yl)-6-(2,5-difluorophenyl)-5-fluoropicolinamide], the IC50 in test [2] is 4 nM; in test [3], 1 nM.
Take `C[C@@H]1C[C@H](N)C[C@H](c2ccncc2NC(=O)c2cccc(-c3ccccc3F)n2)C1` [Example 62, N-(4-((1R,3S,5S)-3-amino-5-methylcyclohexyl)pyridin-3-yl)-6-(2-fluorophenyl)picolinamide]: the IC50 in test [2] stood at 3 nM; in test [3], 1 nM.
On to `C[C@@H]1C[C@H](N)C[C@H](c2ccncc2NC(=O)c2cccc(-c3c(F)cccc3F)n2)C1` [Example 63, N-(4-((1R,3S,5S)-3-amino-5-methylcyclohexyl)pyridin-3-yl)-6-(2,6-difluorophenyl)picolinamide], for which the values for the IC50 in test [2] and in test [3] were 2 nM and 1 nM, respectively.
For `CCCOc1ccc(F)c(-c2nc(C(=O)Nc3cnccc3[C@@H]3CC[C@H](O)[C@H](N)C3)ccc2F)c1` [Example 64, N-(4-((1R,3R,4S)-3-amino-4-hydroxycyclohexyl)pyridin-3-yl)-5-fluoro-6-(2-fluoro-5-propoxyphenyl)picolinamide], the IC50 in test [2] is 5 nM; in test [3], 2 nM.
Taken in the same sequence, the figures for `CCCOc1ccc(F)c(-c2nc(C(=O)Nc3cnccc3[C@@H]3CC[C@H](O)[C@H](N)C3)c(N)cc2F)c1` [Example 67, 3-amino-N-(4-((1R,3R,4S)-3-amino-4-hydroxycyclohexyl)pyridin-3-yl)-5-fluoro-6-(2-fluoro-5-propoxyphenyl)picolinamide] were 3 nM and 1 nM.
Turning to `Cc1ccc(F)c(-c2cccc(C(=O)Nc3cnccc3[C@H]3C[C@@H](N)[C@@H](O)[C@@H](C)C3)n2)c1` [Example 74, N-(4-((1R,3R,4S,5S)-3-amino-4-hydroxy-5-methylcyclohexyl)pyridin-3-yl)-6-(2-fluoro-5-methylphenyl)picolinamide], the IC50 in test [2] is 4 nM; in test [3] it was 1 nM.
For `C[C@H]1C[C@@H](c2ccncc2NC(=O)c2cccc(-c3c(F)cccc3F)n2)C[C@@H](N)[C@H]1O` [Example 76, N-(4-((1R,3R,4S,5S)-3-amino-4-hydroxy-5-methylcyclohexyl)pyridin-3-yl)-6-(2,6-difluorophenyl)picolinamide], the IC50 in test [2] is 2 nM; in test [3], 1 nM.
`N[C@H]1CCC[C@@H](c2ccncc2NC(=O)c2ccc(F)c(-c3cccc(F)c3F)n2)C1` [Example 79, N-(4-((1R,3S)-3-aminocyclohexyl)pyridin-3-yl)-6-(2,3-difluorophenyl)-5-fluoropicolinamide]: the values for the IC50 in test [2] and in test [3] were 3 nM and 2 nM, respectively.
Consider `N[C@H]1CCC[C@@H](c2ccncc2NC(=O)c2nc(-c3c(F)cccc3F)ccc2F)C1` [Example 80, N-(4-((1R,3S)-3-aminocyclohexyl)pyridin-3-yl)-6-(2,6-difluorophenyl)-3-fluoropicolinamide], for which the IC50 was 7 nM in test [2] and 6 nM in test [3].
In the case of `N[C@H]1CCC[C@@H](c2ccncc2NC(=O)c2ccc(F)c(-c3ccc(F)cc3F)n2)C1` [Example 82, N-(4-((1R,3S)-3-aminocyclohexyl)pyridin-3-yl)-6-(2,4-difluorophenyl)-5-fluoropicolinamide], the values for the IC50 in test [2] and in test [3] were 9 nM and 3 nM, respectively.
As to `N[C@@H]1C[C@H](c2ccncc2NC(=O)c2cccc(-c3ccccc3F)n2)CC[C@@H]1O` [Example 83, N-(4-((1R,3R,4S)-3-amino-4-hydroxycyclohexyl)pyridin-3-yl)-6-(2-fluorophenyl)picolinamide], the IC50 in test [2] was 5 nM; in test [3], 4 nM.
On to `Nc1ccc(-c2c(F)cccc2F)nc1C(=O)Nc1cnccc1C1=CC(N)C(O)CC1` (stereo not drawn) [Example 92, 3-amino-N-(4-(trans)-3-amino-4-hydroxycyclohex-1-enyl)pyridin-3-yl)-6-(2,6-difluorophenyl)picolinamide], for which the 50% inhibitory concentration (IC50) in test [2] is 5 nM; in test [3] it was 2 nM.
For the compound `Nc1ccc(-c2c(F)cccc2F)nc1C(=O)Nc1cnccc1C1=C[C@@H](N)[C@@H](O)CC1` [Example 93], the IC50 was determined as 5 nM in test [2] and 1 nM in test [3].
Regarding `C[C@@H]1CN(c2ccncc2NC(=O)c2nc(-c3c(F)cccc3F)ccc2N)C[C@@H](N)[C@H]1O` [Example 103, 3-amino-N-(4-((3R,4S,5R)-3-amino-4-hydroxy-5-methylpiperidin-1-yl)pyridin-3-yl)-6-(2,6-difluorophenyl)picolinamide], the IC50 turned out to be 4 nM in test [2] and 2 nM in test [3].
The matching figures for `Cc1ccc(F)c(-c2cccc(C(=O)Nc3cnccc3[C@H]3C[C@@H](N)C[C@@H](C(F)(F)F)C3)n2)c1` [Example 108, N-(4-((1R,3R,5S)-3-amino-5-(trifluoromethyl)cyclohexyl)pyridin-3-yl)-6-(2-fluoro-5-methylphenyl)picolinamide]: 3 nM and 1 nM.
Consider `N[C@@H]1C[C@H](c2ccncc2NC(=O)c2ccc(F)c(C3CCCCC3)n2)C[C@H](C(F)(F)F)C1` [Example 111, N-(4-((1R,3R,5S)-3-amino-5-(trifluoromethyl)cyclohexyl)pyridin-3-yl)-6-cyclohexyl-5-fluoropicolinamide], for which the IC50 in test [2] amounted to 11 nM; in test [3] it was 2 nM.
With `C[C@H]1CN(c2ccncc2NC(=O)c2ccc(F)c(-c3ccccc3F)n2)C[C@@H](O)[C@@H]1O` [Example 114, N-(4-((3R,4R,5S)-3,4-dihydroxy-5-methylpiperidin-1-yl)pyridin-3-yl)-5-fluoro-6-(2-fluorophenyl)picolinamide], the IC50 in test [2] and in test [3] was 1 nM in each case.
Regarding `C[C@H]1CN(c2ccncc2NC(=O)c2cccc(-c3c(F)cccc3F)n2)C[C@@H](O)[C@@H]1O` [Example 115, 6-(2,6-difluorophenyl)-N-(4-((3R,4R,5S)-3,4-dihydroxy-5-methylpiperidin-1-yl)pyridin-3-yl)picolinamide], the IC50 in test [2] and in test [3] was 1 nM in each case.
Regarding `C[C@H]1CN(c2ccncc2NC(=O)c2ccc(F)c(-c3cccnc3)n2)C[C@@H](N)[C@@H]1O` [Example 118, N-(4-((3R,4R,5S)-3-amino-4-hydroxy-5-methylpiperidin-1-yl)pyridin-3-yl)-3-fluoro-2,3′-bipyridine-6-carboxamide], the IC50 in test [2] was 9 nM; in test [3], 4 nM.
For the compound `C[C@H]1CN(c2ccncc2NC(=O)c2ccc(F)c(-c3ccncc3F)n2)C[C@@H](N)[C@@H]1O` [Example 119, N-(4-((3R,4R,5S)-3-amino-4-hydroxy-5-methylpiperidin-1-yl)pyridin-3-yl)-3,3′-difluoro-2,4′-bipyridine-6-carboxamide], the IC50 in test [2] turned out to be 2 nM; in test [3] it was 1 nM.
As to `C[C@H]1CN(c2ccncc2NC(=O)c2ccc(F)c(-c3ccncc3)n2)C[C@@H](N)[C@@H]1O` [Example 120, N-(4-((3R,4R,5S)-3-amino-4-hydroxy-5-methylpiperidin-1-yl)pyridin-3-yl)-3-fluoro-2,4′-bipyridine-6-carboxamide], the concentration for half-maximal inhibition (IC50) in test [2] is 7 nM; in test [3] it was 3 nM.
In the case of `COc1cc(F)c(-c2nc(C(=O)Nc3cnccc3[C@H]3C[C@@H](N)CC(C)(C)C3)ccc2F)c(F)c1` [Example 123, N-(4-((1R,5R)-5-amino-3,3-dimethylcyclohexyl)pyridin-3-yl)-6-(2,6-difluoro-4-methoxyphenyl)-5-fluoropicolinamide], the IC50 in test [2] is 2 nM; in test [3], 1 nM.
Regarding `N[C@H]1CCC[C@@H](c2ccncc2NC(=O)c2ccc(F)c(-c3c(F)ccc(O)c3F)n2)C1` [Example 124, N-(4-((1R,3S)-3-aminocyclohexyl)pyridin-3-yl)-6-(2,6-difluoro-3-hydroxyphenyl)-5-fluoropicolinamide], the IC50 in test [2] and in test [3] was 1 nM throughout.
On to `C[C@H]1C[C@@H](c2ccncc2NC(=O)c2ccc(F)c(-c3cccc(C(F)(F)F)c3F)n2)C[C@@H](N)[C@@H]1O` [Example 127, N-(4-((1R,3R,4R,5S)-3-amino-4-hydroxy-5-methylcyclohexyl)pyridin-3-yl)-5-fluoro-6-(2-fluoro-3-(trifluoromethyl)phenyl)picolinamide], for which the IC50 in test [2] came out at 27 nM; in test [3] it was 11 nM.
On to `C[C@@H]1C[C@H](N)C[C@H](c2ccncc2NC(=O)c2ccc(F)c(-c3c(F)ccc(F)c3F)n2)C1` [Example 129, N-(4-((1R,3S,5S)-3-amino-5-methylcyclohexyl)pyridin-3-yl)-5-fluoro-6-(2,3,6-trifluorophenyl)picolinamide], for which the IC50 in test [2] was found to be 2 nM; in test [3], 1 nM.
Regarding `Nc1cc(F)c(-c2ccncc2F)nc1C(=O)Nc1cnccc1[C@@H]1CCC[C@H](N)C1` [Example 136, 5-amino-N-(4-((1R,3S)-3-aminocyclohexyl)pyridin-3-yl)-3,3′-difluoro-2,4′-bipyridine-6-carboxamide], the IC50 in test [2] is 9 nM; in test [3] it was 2 nM.
The matching figures for `CC1CC(c2ccncc2NC(=O)c2ccc(F)c(-c3c(F)cccc3F)n2)=CC(O)C1` (stereo not shown) [Example 137, 6-(2,6-difluorophenyl)-5-fluoro-N-(4-(3-hydroxy-5-methylcyclohex-1-enyl)pyridin-3-yl)picolinamide]: 7 nM and 1 nM.
